Data taken from US20230257385A1, “SALT AND SOLID FORMS OF TABERNANTHALOG” (priority 2021, published 2023).

Key:
[1] = Stability assessment at 40° C./75% RH (open vial / double bagged open vial); type: physicochemical; conditions: 4-to-5-week period
Protocol: FIG. 62 depicts the XRPD diffractogram overlay of the time point monitoring of 2-A (open vial) at 75% RH at 40° C. Overlay of, from bottom to top, the tabernanthalog monofumarate (Sample Reference 1, t=0), 2-A1 (t=3 h), 2-A2 (t=24 h), 2-A3 (t=48 h), 2-A4 (t=7 days), 2-A5 (t=2 weeks), 2-A6 (t=3 weeks), 2-A7 (t=4 weeks), 2-A8 (t=5 weeks).
FIG. 63 depicts the XRPD diffractogram overlay of the time point monitoring of 2-B (double bagged open vial) at 75% RH at 40° C. Overlay of, from bottom to top, the tabernanthalog monofumarate salt (Sample Reference 1, t=0), 2-B1 (t=3 h), 2-B2 (t=24 h), 2-B3 (t=48 h), 2-B4 (t=7 days), 2-B5 (t=2 weeks), 2-B6 (t=3 weeks), 2-B7 (t=4 weeks), 2-B8 (t=5 weeks).

[2] = Solubility determinations in SIF buffers FaSSIF, FeSSIF, FaSSGF (Example 8, Experiment 5); conditions: 37 °C, thermodynamic from solid
Outline: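 Suspensions in FaSSIF, FeSSIF or FaSSGF held at 37° C for 24 h, sampled at set time points and centrifuged. Pellets checked by XRPD, wet and dried, for form change.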

[3] = Dynamic vapour sorption (DVS) of selected salts (Example 8); type: physicochemical; conditions: 0 to 90 to 0% RH, 25° C., dm/dt 0.002%/min
Outline: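 Sorption/desorption isotherms on 20–50 mg sample at 25°C after 60 min at 0% RH: 5% steps to 30%, 10% steps to 90%, then reverse. Equilibrium criterion dm/dt 0.002%/min; kinetic and isotherm curves derived.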

[4] = DVS analyses of the monofumarate salt (Example 5, Experiment Reference 4); type: physicochemical; conditions: mass equilibrated, 0 to 90% to 0% RH, 25° C.
Protocol: (§1) The moisture sorption properties of the feed API were analyzed by DVS Intrinsic instrument (Surface Measurement System). Approximately 20 to 50 mg of API was weighed onto an aluminum pan and loaded into the instrument equilibrated at 25° C. The sample was equilibrated under a dry atmosphere (0% relative humidity) for 60 minutes, before increasing the humidity from 0% to 30% at 5% step increment and from 30% to 90% at 10% step increment. A desorption cycle was also applied from 90% to 30% (10% step decrement) and from 30% to 0% (5% step decrement). A rate of change in mass per time unit (dm/dt) of 0.002%/min was set as the equilibrium parameter. Kinetic and isotherm graphs were calculated.
as §1, with “feed API (active pharmaceutical ingredient) were analyzed” for “feed API were analyzed”, “step decrement). […] Kinetic and” for “step decrement). A rate of change in mass per time unit (dm/dt) of 0.002%/min was set as the equilibrium parameter. Kinetic and”, “were calculated. […]” for “were calculated.”

[5] = Equilibrium humidity evaluation 75% RH/40° C., 10 days (Example 8, Experiment 6); type: physicochemical; conditions: 75% RH/40° C.
Protocol: The experimental procedure that accompany this experiment is provided in Section G.ii.
All forms were maintained under constant equilibrium humidity (75% RH). XRPD, DSC, TGA, PLM and ^1H NMR analyses were performed on the absorbents at t=5 d and t=10 d, to confirm their physical fates and to determine the extent of residual solvent exchange or sequestration.
100 mg portions of Tabernanthalog salts ([…]) were placed in the relevant open vials. The powders were finely divided and distributed evenly over the base of the vial, such that equal material coverage across the panel was observed. These samples were then maintained 40° C. under 75% RH. The samples were sub-sampled at intervals of 5 and 10 days and analyzed by ^1H NMR, HPLC, XRPD, DSC, TGA and PLM, for evidence of phase change or chemical degradation.

[6] = Standing of solid forms over time (form by XRPD); type: physicochemical; conditions: amorphous Experiment 1-Sample D1 standing overnight, ambient
Source text: FIG. 844 depicts the XRPD profile of Experiment 1-Sample D2 (Tabernanthalog·Sorbate, Form A).

[7] = Amorphous study (freeze drying, evaporation, spray drying, bead milling) of monofumarate and sorbate; type: physicochemical
Source text: The purpose of this study was to generate amorphous material to be characterized and used in water activity studies. To achieve this, the two salts were exposed to a variety of techniques in attempts to generate the amorphous forms, including freeze drying, evaporation, vacuum desiccation and cryodesiccation spray drying. These techniques were not successful for the two salts Tabernanthalog·Monofumarate and Tabernanthalog·Sorbate.
Bead milling was attempted to generate the amorphous form of Tabernanthalog·Sorbate (Tabernanthalog·Sorbate, Form A). The salt underwent neat milling and separately with the addition of tetradecafluorohexane (TDFH). The following experiments were performed: Experiment 6-Sample A1 (30 Hz, 2 h), Experiment 6-Sample A2 (30 Hz, 5.5 h) and Experiment 6-Sample A3 (30 Hz 1 h, TDFH), the products from each experiment was analysed by XRPD to determine the extent of crystallinity (FIG. 812). None of the experiments provided amorphous material.
Each salt was charged to a 7 ml vial (50 mg, 1.0 wt). To the vial containing Tabernanthalog·Monofumarate (Tabernanthalog·Monofumarate), was charged water (10.0 vol), to fully dissolve the sample. Tabernanthalog·Sorbate (A1270-076-A1) was taken-up in ethanol/water (15% v/v, 10 vol), a further charge of water (1.0 ml), was added to ensure that the sample dissolved.
Vials containing the salt solutions were placed on the freeze drier apparatus overnight, and the cryo-desiccated products were recovered the following morning and analysed by XRPD each product remained crystalline.
Tabernanthalog·Monofumarate (A1272−082-A2, 51.1 mg, 1.0 wt) was charged to a 7 ml scintillation vial followed by THE (2 ml, […]), the suspension was heated to 50° C., until full dissolution was observed. The vial was stoppered by foil and a pin hole was pierced in the top. The vial was located under a steady N2 stream.
Tabernanthalog·Sorbate (A1270−076-A1, 99.4 mg, 1.0 wt) was charged to a 7 ml scintillation vial, followed by hexafluoroisopropanol (HFIPA, 5.0 vol, 0.5 ml), after which, the sample fully dissolved. The cap was replaced by foil and pierced on the top. Solvent was allowed to evaporate, to afford a dry, brown solid that was analysed by XRPD yielding crystalline pattern #7. Sample were dried under N2 stream for 5 h and reanalysed by XRPD, remaining as pattern #7
Tabernanthalog·Sorbate (A1270−076-A1, 50.0 mg, 1.0 wt) was charged to a 7 ml scintillation vial followed by hexafluoroisopropanol (HFIPA, 0.5 ml, 10 vol), to yield a clear solution. The solution was concentrated to dryness, by rotary evaporation, yielding an oil, that was allowed to stand undisturbed overnight.
Tabernanthalog·Sorbate (A1270−076-A1, 50.0 mg, 1.0 wt) was charged to a 7 ml scintillation vial, followed by methanol (300 μl, 6.0 vol). The solution was clarified by filtration into a 7 ml scintillation vial, containing diethyl ether (1.0 ml, 20.0 vol).
Tabernanthalog·Sorbate (A1270−076-A1, 102 mg, 1 wt) was charged to a 7.0 ml scintillation vial followed by methanol (1.9 ml, 19.0 vol). The solution was loaded into the spray drier apparatus.
The procedure yielded a brown powder (30 mg, 30% th.).
Tabernanthalog·Sorbate (A1270-076-A1, Form A) was charged to a 1.5 ml steel milling-vessel with a single 5 mm ball bearing. The sample was milled for 5.5 h at 30 Hz and yielded an off-white powder, that was analysed by XRPD, no change in crystallinity.

[8] = Thermal study: glass transition temperature (Tg) of amorphous monofumarate and sorbate; type: physicochemical
Protocol: Each salt was analysed by DSC and TGA to determine the Tg of the amorphous form. Amorphous forms were generated by thermocycling the salt past the melt temperature, cooling the sample, and once cooled the samples were reheated. Open pan and sealed pan DSC were utilised, open pan DSC were heated past the melt event, cooled, and left to stand under ambient conditions overnight.
Sealed pans were immediately cycled with no time left to stand.
TGA (open pan) samples were analysed by thermocycle, with no time for the sample to stand under ambient conditions.
The amorphous forms were generated in these studies and characterised with their Tg being measured.
A hot stage microscope heating block was used to generate the amorphous phase in-situ, to allow analysis by XRPD. A silicon XRPD sample plate was loaded with the appropriate salt. The plate was heated past the melt event, removed from the hot stage microscope block and cooled to ambient in air and analysed by XRPD to ensure that the amorphous form was generated. The amorphous material was then analysed by ^1H NMR and LC-MS to ensure there was no change in chemical composition.
Two DSC pans were charge with the appropriate salt (Tabernanthalog·Sorbate, A1270−076-A1 and Tabernanthalog·Monofumarate, Tabernanthalog·Monofumarate), the first DSC pan was not sealed (open pan DSC), the second was sealed (hermetic sealed pan DSC). The open pan DSC was cycled from 20° C. to just after the melt event for each, cooled to −20° C. and left to stand under ambient conditions over night. The open pan DSC was then heated to just before the thermal degradation event (Tabernanthalog·Sorbate ca. 160° C., Tabernanthalog·Monofumarate ca. 210° C.) The hermetic sealed DSC was heated from 20° C. to just after the melt event, cooled to −20° C. then headed to just before the same degradation event.
Two TGA crucibles were charged with the appropriate salt (Tabemanthalog·Sorbate, A1270-076-A1, Tabernanthalog·Monofumarate, Tabernanthalog·Monofumarate), both were thermocycled from 20° C. to past the melt event and then cooled to −20° C., each pan was then immediately heated to just before the degradation event to measure the Tg event.

[9] = Amorphisation activity: Antisolvent/N2 Flow, 50 mg
[10] = Amorphisation activity: Freeze dry, 50 mg
[11] = Amorphisation activity: HFIP Evaporation, 50 mg
[12] = Amorphisation activity: Milling, 50 or 100 mg
[13] = Amorphisation activity: Rotary Vac (MeOH), 50 mg
[14] = Amorphisation activity: Spray drying (15% EtOH/Water), 100 mg
[15] = Amorphisation activity: Spray drying (MeOH), 100 mg
[16] = Amorphisation activity: THF/N2, 50 mg

COc1ccc2c3c([nH]c2c1)CCN(C)CC3 [tabernanthalog monofumarate Pattern #1]
stability assessment [1]: no evidence for hydrate formation, chemical degradation or disproportionation

COc1ccc2c3c([nH]c2c1)CCN(C)CC3.O=C(O)/C=C/C(=O)O [8-Methoxy-3-methyl-2,4,5,6-tetrahydro-1H-azepino[4,5-b]indole fumarate salt (polymorph Form A)]
solubility at 24 h ([2]; pH 1.6, fassgf or other biorelevant): > 30 mg/mL
solubility at 24 h ([2]; pH 5, fessif): > 30 mg/mL
solubility at 24 h ([2]; pH 6.5, fassif): > 30 mg/mL
DVS sorption/desorption isotherm [3]: hygroscopic isotherm, with negligible hysteresis
DVS isotherm [4]: hygroscopic isotherm with negligible hysteresis
change in chemical purity (trended HPLC) ([5]; after 10 days): slight decrease in chemical purity
water uptake / hydrate formation (TGA, DSC) ([5]; t=5 d and t=10 d): no significant water uptake
powder diffraction pattern versus input (form stability) ([5]; t=5 days and t=10 days): resembled the input phase

COc1ccc2c3c([nH]c2c1)CCN(C)CC3 [Tabernanthalog•Sorbate]
Outcome [6]: Crystalline
Form by XRPD [7, 9]: Form A
Outcome [7, 9]: Crystalline
Form by XRPD [7, 10]: Form A
Outcome [7, 10]: Crystalline
Form by XRPD [7, 11]: Pattern #7
Outcome [7, 11]: Crystalline and Gum
Form by XRPD ([7]; Amorphisation activity: Hot Melt Extrusion (Overnight), 250 mg): Form A
Form by XRPD ([7]; Amorphisation activity: Hot Melt Extrusion, 250 mg): Form A
Form by XRPD [7, 12]: Form A
Outcome [7, 12]: Crystalline
Form by XRPD [7, 13]: Form A
Outcome [7, 13]: Crystalline
Form by XRPD [7, 14]: Form A
Outcome [7, 14]: Crystalline
Form by XRPD [7, 15]: Form A
Outcome [7, 15]: Crystalline
Form by XRPD [7, 16]: Form A
Outcome [7, 16]: Crystalline
Outcome ([8]; Hot plate heat up, sorbate 20 to 170 ° C., monofumarate 20 to 210 ° C.): Amorphous
Outcome ([8]; Hot stage plate heat up, sorbate 20 to 170 ° C., monofumarate 20 to 210 ° C.): Amorphous
Outcome ([8]; Open Pan DSC, sorbate 20 to 165 to −20, O/N 20 to 230 ° C., monofumarate 20 to 210 to −20, O/N 20 to 210 ° C.): Amorphous
Outcome ([8]; Sealed DSC, sorbate 20 to 165 to −20 to 230 ° C., monofumarate 20 to 210 to −20 to 210 ° C.): Amorphous
Outcome ([8]; TGA, sorbate 20 to 165 to −20 to 230 ° C., monofumarate 20 to 210 to −20 to 210 ° C.): Amorphous
Glass temperature (Tgs) ([8]; amorphous form generated in situ, sealed DSC thermocycle (Sample B1)): 22 °C
